Each block holds one compound with its values, some of them ahead of it.
Legend:
[1] = biological target: GABAA receptors (rat cerebral cortex P2 homogenate); test: [35S]TBPS binding assay; conditions: inhibition of [35S]TBPS binding
Procedure: The cerebral cortex from male Sprague-Dawley rats (weighing 160-200 g) was removed immediately after decapitation and dissected over ice. A P2 homogenate was prepared for binding assay as previously described (Gee, 1987a). The tissue was homogenized in 0.32 M sucrose (J. T. Baker Chemical Co., Phillipsburg, N.J.) with a Teflon-coated pestle, followed by centrifugation at 1,000×g for 10 min. The supernatant was collected and centrifuged at 9,000×g for 20 min. The resultant P2 pellet was resuspended in ice-cold 50 mM sodium potassium phosphate buffer (pH 7.4) containing 200 mM NaCl and used immediately in binding assays. A 2 nM concentration of [^35S]TBPS (86 Ci/mmol; New England Nuclear, Boston, Mass.) was incubated with 100 μL of tissue homogenate (10% w/v) in the presence or absence of 5 μM GABA (Sigma Chem. Co., St. Louis, Mo.) and 5 μL aliquots of test drug dissolved in dimethyl sulfoxide (Sigma Chem. Co.) (≦10 μL of solvent used in all assays). At the concentration (≦1%) used, dimethyl sulfoxide had no effect on specific [^35S]TBPS binding. […] Filter-bound radioactivity was quantified by liquid scintillation spectrophotometry. The data were evaluated by nonlinear regression (GraphPad, Inc., San Diego, Calif.) to obtain IC50 (concentration at which half-maximal inhibition of radioligand occurs) and Imax (maximum percent inhibition) values. […]

[2] = system: pentylenetetrazole-induced seizures; test: Anticonvulsant assay, protection from pentylenetetrazole-induced seizures; assay type: in vivo; conditions: oral dosing in 20% 2-hydroxypropyl-β-cyclodextrin; dose protecting half the animals from seizures
Procedure: The ability of compounds to protect against pentylenetetrazole-induced seizures was carried out as described by Hogenkamp, et al. J. Med. Chem. 2007, 50, 3369. The dose that protected half the animals from seizures was determined as the ED50.

mice [3] = test: Mouse elevated plus maze (EPM); assay type: in vivo; conditions: dosed in 20% 2-hydroxypropyl-β-cyclodextrin
Procedure: Mouse Elevated Plus Maze (EPM)
Mice were group housed and handled daily for 3 days prior to testing in the EPM (Coulbourn Instruments). Testing was conducted in a dimly lit room, with two 60 W bulbs pointed at the ceiling near the open arms (4 ft. above the maze). The maze was cleaned between each run. Automated counting of time spent in the open arms of the maze was achieved by using Med Associates (St. Albans, Vt.) MedPC-IV program. Data were analyzed with GraphPad Prism 4.0 for statistical significance by one-way ANOVA with Dunnett's multiple comparison post-hoc test. Compounds that increase the amount of time the animals spend in the open arms have activity as anxiolytics.

mice [4] = test: Mouse rotarod (RR); assay type: in vivo; conditions: dosed in 20% 2-hydroxypropyl-β-cyclodextrin
Procedure: Naïve mice were trained on a RR (Columbus Instruments, Columbus, Ohio) in 4 sessions (6-15 rpm) over 2 days to successfully complete the 2-min trial prior to final testing (6 rpm). On day 3, the mice were administered compound and tested over a period of 360 min at various intervals. The percentage of animals remaining on the RR throughout each 2-min trial was recorded. The results that coincided with the time of peak effect were analyzed by the method of Litchfield and Wilcoxon (Litchfield and Wilcoxon, J. Pharmacol. Exp. Ther., 1949, 96, 99) to determine the AD50 (ataxic half-maximal dose where half of the mice fail the RR assay). Compounds that have activity in the rotarod assay can indicate CNS depressive activity and sedative activity.

[5] = biological target: T1, human α1β1γ2 GABAA receptors (Homo sapiens, UniProt P14867+P18505); test: Oocyte electrophysiology, modulation of EC10 GABA response; assay type: cell-based; conditions: oocytes expressing human α1β1γ2 GABAA receptors; % modulation above EC10 GABA control
T1 construct: expressed in transfected cells
Procedure: Preparation, micro-injection and maintenance of oocytes was as previously described (Ng et al., Proc. Natl. Acad. Sci., 2007, 104, 8059). Individual oocytes were injected with 0.005-50 ng of each subunit mRNA as follows (ratio of subunits in parentheses): GABAA receptor subunit combinations (α1,2, or 3, β1,2, or 3, γ2L or δ): (5:1:1). Stage IV-V oocytes were plucked from ovary membranes, defolliculized with collagenase Type IA (Worthington's) for 45 min and rinsed 10 times with Ringer's salt solution. cRNA was injected at 50 nL. Oocytes were tested 3-28 days after injection (n=3-7 per compound), in Ringer's salt solution by linear drug application method using electrodes with […] tip resistance. Changes in membrane current were passed through a pre-amp, then through a T200 patch amplifier (Axon Instruments), with a bandpass filter 2 kHz. pClamp software was used to monitor, record, and analyze data. All compounds were tested with a 30 second pretreatment prior to co-application with EC10 (concentration of GABA that evokes 10% of the maximum response) GABA for the control response. Responses in presence of test compound were calculated as % modulation above control. Concentration-response curves were fit to non-linear regression analysis on Prism 4.0 (GraphPad, San Diego, Calif.) for % maximal stimulation and EC50. […]

T1 sequence (P14867 28-456): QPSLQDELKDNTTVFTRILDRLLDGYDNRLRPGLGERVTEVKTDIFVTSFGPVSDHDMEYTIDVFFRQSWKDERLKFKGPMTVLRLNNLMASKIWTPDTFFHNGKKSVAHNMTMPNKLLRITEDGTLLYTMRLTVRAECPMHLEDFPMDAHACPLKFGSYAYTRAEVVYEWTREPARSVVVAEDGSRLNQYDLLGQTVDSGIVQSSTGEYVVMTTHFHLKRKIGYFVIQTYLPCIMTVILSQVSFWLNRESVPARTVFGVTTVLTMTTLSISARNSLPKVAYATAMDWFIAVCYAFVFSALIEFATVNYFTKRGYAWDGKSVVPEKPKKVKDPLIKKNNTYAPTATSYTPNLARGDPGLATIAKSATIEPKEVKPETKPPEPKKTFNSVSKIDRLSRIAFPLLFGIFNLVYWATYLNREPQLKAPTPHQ
T1 sequence (P18505 26-474): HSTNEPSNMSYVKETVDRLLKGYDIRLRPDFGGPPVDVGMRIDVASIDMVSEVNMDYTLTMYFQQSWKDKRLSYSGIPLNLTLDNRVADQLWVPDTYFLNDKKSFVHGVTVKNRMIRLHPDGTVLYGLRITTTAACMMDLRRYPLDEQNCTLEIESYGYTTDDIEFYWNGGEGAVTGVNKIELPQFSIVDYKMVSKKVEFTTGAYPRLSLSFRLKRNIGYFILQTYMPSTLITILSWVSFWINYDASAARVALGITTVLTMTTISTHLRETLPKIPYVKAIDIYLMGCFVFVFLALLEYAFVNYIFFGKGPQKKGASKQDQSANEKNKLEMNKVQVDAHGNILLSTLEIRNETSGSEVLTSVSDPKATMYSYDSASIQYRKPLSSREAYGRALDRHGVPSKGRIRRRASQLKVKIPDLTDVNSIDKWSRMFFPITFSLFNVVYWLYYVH
T1 sequence (P18507 40-475 partner): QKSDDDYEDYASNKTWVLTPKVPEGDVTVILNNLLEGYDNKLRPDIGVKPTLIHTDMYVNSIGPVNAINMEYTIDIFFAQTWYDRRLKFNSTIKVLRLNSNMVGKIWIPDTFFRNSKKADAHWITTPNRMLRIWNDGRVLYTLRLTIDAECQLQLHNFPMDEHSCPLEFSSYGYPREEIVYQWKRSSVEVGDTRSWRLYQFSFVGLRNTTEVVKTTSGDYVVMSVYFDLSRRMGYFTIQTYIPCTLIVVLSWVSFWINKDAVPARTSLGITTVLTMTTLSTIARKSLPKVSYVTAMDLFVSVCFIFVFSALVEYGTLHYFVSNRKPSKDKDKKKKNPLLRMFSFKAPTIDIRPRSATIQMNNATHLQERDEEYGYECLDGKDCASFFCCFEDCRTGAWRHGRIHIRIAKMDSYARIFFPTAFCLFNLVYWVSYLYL

- melting point: 192 to 193 °C
SMILES: C[C@@]1(O)CC[C@@]2(C)[C@@H](CC[C@@H]3[C@@H]2CC[C@]2(C)[C@@H](c4cc(CO)no4)CC[C@@H]32)C1

SMILES: C[C@@]1(O)CC[C@@]2(C)[C@@H](CC[C@@H]3[C@@H]2CC[C@]2(C)[C@@H](c4cn5ccccc5n4)CC[C@@H]32)C1 [2-[3α-Hydroxy-3β-methyl-5α-androstan-17β-yl]-imidazo[1,2-a]pyridine]
- IC50 [1]: 1000 nM
- Imax (maximum percent inhibition) [1]: 100%

SMILES: C[C@@]1(O)CC[C@@]2(C)[C@@H](CC[C@@H]3[C@@H]2CC[C@]2(C)[C@@H](c4cc(CO)on4)CC[C@@H]32)C1 [3-[3α-hydroxy-3β-methyl-5α-androstan-17β-yl]-5-(hydroxymethyl)isoxazole]
- ED50 [2]: 4 mg/kg
- minimum effective oral dose (mice [3]): 1 mg/kg
- oral AD50 (ataxic half-maximal dose) (mice [4]): 43 mg/kg
- melting point: 198.5 to 200 °C

SMILES: C[C@@]1(O)CC[C@@]2(C)[C@@H](CC[C@@H]3[C@@H]2CC[C@]2(C)[C@@H](c4ccno4)CC[C@@H]32)C1 [5-[3α-hydroxy-3β-methyl-5α-androstan-17β-yl]-isoxazole]
- maximum modulation [5]: 400%

Source: patent publication US20140148412A1, “NOVEL 17B-HETEROARYL-S[…] AS MODULATORS OF GABAA RECEPTORS” (THE REGENTS OF THE UNIVERSITY OF CLAIFORNIA, priority 2011, published 2014)
